Reference: patent publication US20260232713A1, “PLECOMACROLIDE DERIVATIVES FOR MHC-I NEF DOWNMODULATION” (priority 2022, published 2026)
“Also recorded” adds a separate entry of the source. Like-named read-outs stand apart in the source and are kept apart here.

What was measured:
primary CD4+ T cells = assay: in vitro; details: for Viability:Nef (therapeutic window separating Nef IC50 and TC50): ratio TC50 to Nef IC50; for CC50: read-out: Viability (TC50), mock primary CD4+ T cells, 72 hours after treatment
Protocol: (§1) Inhibition of HIV-Nef was measured by assessing its capacity to downmodulate MHC-I HLA-A2 on the surface of primary CD4+ T cells 24-hours after treatment with each compound. V-ATPase inhibition was assessed at the same time point using lysosomal acidification as an indicator of V-ATPase activity. This was measured using a flow cytometric assay that quantified Lysotracker mean fluorescence intensity as previously described (Painter et al., 2020). Cell viability was measured at 24-hour and 72-hour time points using a previously described flow cytometric assay (Painter et al., 2020).
(§2) Anonymized leukocytes isolated by apheresis were obtained from New York Blood Center and peripheral blood mononuclear cells (PBMCs) were isolated by Ficoll-Paque Plus (17144002; GE Healthcare) centrifugation using SepMate tubes (85450; StemCell Technologies) according to the manufacturers protocol. […] Then, 20-24 hours post-PHA activation, 15 mL of R10/PHA medium is removed and replaced with 5 mL of R10+100u/mL Recombinant Human IL-2 (202|L010; R&D Systems). 48 hours after IL-2 stimulation, primary CD4^+ T cells were infected via spinoculation with previously described HIV ΔGPE construct.
(§3) 48 hours after spinoculation, cells were pooled and plated in flat bottom 96-well plate. […] Compounds were thawed at room temperature and diluted in R10 medium to 2× starting concentration.
(§4) All ΔGPE infected cells were collected 24 hours after treatment.
(§5) All Mock cells were collected 72 hours after treatment.
(§6) All statistical analyses were performed using GraphPad Prism software. Curves were generated using GraphPad Prism software using [Inhibitor] vs. response with variable slope (four parameters).

V-ATPase [1] = molecular target: T1, V-ATPase (Homo sapiens, UniProt P27449); assay: Lysosomal acidification (Lysotracker mean fluorescence intensity) as indicator of V-ATPase activity in primary CD4+ T cells; type: cell-based
T1 construct: endogenous in cells; host or cells: primary CD4+ T cells (HIV ΔGPE infected) from donor PBMCs
T1 sequence (P27449 whole entry, looked up): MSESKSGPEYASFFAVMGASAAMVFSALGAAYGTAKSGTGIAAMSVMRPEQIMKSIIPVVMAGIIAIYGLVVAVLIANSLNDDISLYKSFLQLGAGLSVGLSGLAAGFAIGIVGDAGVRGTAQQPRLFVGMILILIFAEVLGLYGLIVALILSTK
Protocol: as §1, §2, §3, §4, §6

HIV-Nef [2] = molecular target: T2, HIV-Nef (Human immunodeficiency virus type 1, UniProt P03406); assay: Inhibition of HIV-Nef downmodulation of MHC-I HLA-A2 on the surface of HIV ΔGPE infected primary CD4+ T cells (flow cytometry); type: cell-based; details: for IC50 / Nef (Nef IC50): HLA-A2 surface expression, ΔGPE infected primary CD4+ T cells, 24 hours after treatment
T2 sequence (P03406 2-206): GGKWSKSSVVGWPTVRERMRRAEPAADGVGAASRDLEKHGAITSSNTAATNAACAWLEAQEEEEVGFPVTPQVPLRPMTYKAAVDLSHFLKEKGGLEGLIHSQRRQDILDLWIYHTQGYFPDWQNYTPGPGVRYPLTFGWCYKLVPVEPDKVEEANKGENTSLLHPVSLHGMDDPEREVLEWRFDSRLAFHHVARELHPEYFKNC

in vitro = details: human
Protocol: as §1, §2, §3, §4, §5, §6

V-ATPase [3] = details: literature report; cited from earlier work
HIV-Nef [4] = molecular target: T2, HIV-Nef; details: literature report; cited from earlier work
[5] = Lysotracker Red, ΔGPE infected primary CD4+ T cells, 24 hours after treatment, read-out: Lysotracker (V-ATPase IC50, lysosomal neutralization)
[6] = Lysotracker Red, ΔGPE infected primary CD4+ T cells, 24 hours after treatment

Row | Molecule | Viability:Nef (therapeutic window separating Nef IC50 and TC50) (primary CD4+ T cells) | CC50 (in vitro) | IC50 (V-ATPase [1]) | other results
1 | 21-Deoxy CMF [Compound S24] | 2.2 fold | – | – | CC50 (primary CD4+ T cells): 9.4 nM; IC50 (V-ATPase [1]; [5]): 32 nM; IC50 (HIV-Nef [2]): 4.5 nM
2 | CNC(=O)O[C@@H](CC(C)C)c1nc([C@H]2OC(=O)/C(C)=C/C/C(C)=C/[C@@H](O)[C@@H](C)\C=C(C)/C=C(C)\C=C\[C@@H](O)[C@H](C)[C@H](OC)/C(C)=C/C=C/[C@@H]2C)cs1 [Compound 3, Archazolid A, reference compound] | – | – | – | IC50 (V-ATPase [1]; [5]): 1.6 nM; IC50 (HIV-Nef [2]): 0.47 nM
3 | CO/C1=C\C(C)=C\[C@@H](C)[C@@H](O)[C@@H](C)C/C(C)=C/C=C/[C@H](OC)[C@@H]([C@@H](C)[C@@H](O)[C@H](C)[C@@]2(OC)C[C@@H](O)[C@H](C)C(C(C)C)O2)OC1=O (some centres unmarked) [Compound S4, Bafilomycin A2] | 1.2 fold | 13 nM | 24 nM | –
4 | CO/C1=C\C(C)=C\[C@@H](C)[C@@H](O)[C@@H](C)C/C(C)=C/C=C/[C@H](OC)[C@@H]([C@@H](C)[C@@H](O)[C@H](C)[C@H]2C[C@@H](OC)[C@H](C)[C@@H](C(C)C)O2)OC1=O [Compound S6] | 1.4 fold | 28 nM | 52 nM | –
5 | CO/C1=C\C(C)=C\[C@@H](C)[C@@H](O)[C@@H](C)C/C(C)=C/C=C/[C@H](OC)[C@@H]([C@@H](C)[C@@H](O)[C@H](C)[C@@]2(O)C[C@@H](OC(C)=O)[C@H](C)C(C(C)C)O2)OC1=O (some centres unmarked) [Compound S9] | 2.4 fold | 10 nM | 23 nM | –
6 | CCCCCCCCC(=O)O[C@@H]1C[C@](O)([C@@H](C)[C@H](O)[C@H](C)[C@H]2OC(=O)/C(OC)=C/C(C)=C/[C@@H](C)[C@@H](O)[C@@H](C)C/C(C)=C/C=C/[C@@H]2OC)O[C@H](C(C)C)[C@H]1C [Compound S11] | 1.1 fold | 140 nM | 150 nM | –
7 | C=C/C=C/C(=O)O[C@@H]1C[C@](O)([C@@H](C)[C@H](O)[C@H](C)[C@H]2OC(=O)/C(OC)=C/C(C)=C/[C@@H](C)[C@@H](O)[C@@H](C)C/C(C)=C/C=C/[C@@H]2OC)O[C@H](C(C)C)[C@H]1C [Compound S12] | 1.4 fold | 22 nM | 24 nM | –
8 | COC1=CC(C)=CC(C)C(O)C(C)CC(C)=CC=CC(OC)C(C(C)C(O)C(C)C2(O)CC(OC3OC(C)C(O)C(O)C3OC)C(C)C(C(C)C)O2)OC1=O (centres unmarked) [Compound S14, Leucanicidin, reference compound] | 1.3 fold | 1.4 nM | 2.5 nM | –
9 | CC=CC=CC1OC(O)(C(C)C(O)C(C)C2OC(=O)C(OC)=CC(C)=CC(C)C(O)C(C)CC(C)=CC=CC2OC)CC(OC2CC(O)C(O)C(C)O2)C1C (centres unmarked) [Compound S15, PC-766B, reference compound] | 1.1 fold | 1.3 nM | 2.5 nM | –
10 | CO/C1=C\C(C)=C\[C@@H](C)C(=O)[C@@H](C)C/C(C)=C/C=C/[C@H](OC)[C@@H]([C@@H](C)[C@@H](O)[C@H](C)[C@@]2(O)C[C@@H](O)[C@H](C)[C@@H](C(C)C)O2)OC1=O [Compound S17] | – | – | > 1000 nM | CC50 at 72 h (in vitro): > 1000 nM; Lysotracker (V-ATPase IC50, lysosomal neutralization) (V-ATPase [1]; [6]): above the activity threshold; Nef (Nef IC50) (HIV-Nef [2]): abrogation of activity at all concentrations tested; also recorded: above the activity threshold
11 | CO/C1=C\C(C)=C\[C@@H](C)C(=O)[C@@H](C)C/C(C)=C/C=C/[C@H](OC)[C@@H]([C@@H](C)[C@@H](O)[C@H](C)[C@@]2(O)CC(=O)[C@H](C)[C@@H](C(C)C)O2)OC1=O [Compound S18] | – | > 1000 nM | > 1000 nM | Lysotracker (V-ATPase IC50, lysosomal neutralization) (V-ATPase [1]; [6]): above the activity threshold; Nef (Nef IC50) (HIV-Nef [2]): above the activity threshold
12 | CO/C1=C\C(C)=C\[C@@H](C)[C@@H](OC(C)=O)[C@@H](C)C/C(C)=C/C=C/[C@H](OC)[C@@H]([C@@H](C)[C@@H](O)[C@H](C)[C@@]2(O)C[C@@H](OC(C)=O)[C@H](C)C(C(C)C)O2)OC1=O (some centres unmarked) [Compound S19] | 1.8 fold | 440 nM | 530 nM | –
13 | C/C=C/[C@H]1O[C@@H]([C@@H](C)[C@H](O)[C@H](C)[C@H]2OC(=O)/C(OC)=C/C(C)=C/[C@@H](C)[C@@H](O)[C@@H](CC)[C@@H](O)[C@H](C)C/C(C)=C/C=C/[C@@H]2O)C[C@@H](O)[C@@H]1C [Compound S25, 21-Deoxy-16-Hydroxy CMF] | – | – | – | CC50 (primary CD4+ T cells): > 1000 nM; IC50 (V-ATPase [1]; [5]): > 1000 nM; IC50 (HIV-Nef [2]): 400 nM; Fold reduction of activity compared to 6 (HIV-Nef [2]; comparator CMF (6)): over 200 fold
14 | C#CCCC(=O)O[C@@H]1C[C@H]([C@@H](C)[C@H](O)[C@H](C)[C@H]2OC(=O)/C(OC)=C/C(C)=C/[C@@H](C)[C@@H](O)[C@@H](C)C/C(C)=C/C=C/[C@@H]2OC)O[C@H](C(C)C)[C@H]1C [Compound S28] | 1.7 fold | 36 nM | 61 nM | –
15 | C/C=C/CC(=O)O[C@@H]1C[C@](O)([C@@H](C)[C@H](O)[C@H](C)[C@H]2OC(=O)/C(OC)=C/C(C)=C/[C@@H](C)[C@@H](O)[C@@H](C)C/C(C)=C/C=C/[C@@H]2OC)OC(C(C)C)[C@H]1C (some centres unmarked) [Compound S29] | 1.6 fold | 39 nM | 47 nM | –
16 | CC[C@H]1OC(=O)[C@H](C)[C@@H](O)[C@H](C)[C@@H](O)[C@@H](C)C[C@@H](C)C(=O)[C@H](C)[C@@H](O)[C@H]1C [Compound S31, 6-deoxyerythronolide B, reference compound] | – | – | – | CC50 (primary CD4+ T cells): > 1000 nM; IC50 (V-ATPase [1]; [5]): > 1000 nM; IC50 (HIV-Nef [2]): > 1000 nM
17 | C/C=C/[C@H]1O[C@@](O)([C@@H](C)[C@H](O)[C@H](C)[C@H]2OC(=O)/C(OC)=C/C(C)=C/[C@@H](C)[C@@H](O)[C@@H](CC)[C@@H](O)[C@H](C)C/C(C)=C/C=C/[C@@H]2OC)C[C@@H](O[C@@H]2C[C@H](OC(C)=O)[C@@H](OC(C)=O)[C@H](C)O2)[C@@H]1C [Compound S48, 3′,4-diacetyl CMC] | 1.8 fold | 1.3 nM | 3.1 nM | –
18 | C/C=C/[C@H]1O[C@@](O)([C@@H](C)[C@H](O)[C@H](C)[C@H]2OC(=O)/C(OC)=C/C(C)=C/[C@@H](C)[C@@H](O)[C@@H](CC)[C@@H](OC(C)=O)[C@H](C)C/C(C)=C/C=C/[C@@H]2OC)C[C@@H](O[C@@H]2C[C@H](OC(C)=O)[C@@H](OC(C)=O)[C@H](C)O2)[C@@H]1C [Compound S49, 3′,4′,9-triaceyl CMC] | 1.8 fold | 4.5 nM | 11 nM | –
19 | C/C=C/[C@H]1O[C@@](O)([C@@H](C)[C@H](O)[C@H](C)[C@H]2OC(=O)/C(OC)=C/C(C)=C/[C@@H](C)[C@@H](O)[C@@H](CC)[C@@H](O)[C@H](C)C/C(C)=C/C=C/[C@@H]2OC)C[C@@H](OC(C)=O)[C@@H]1C [Compound S50, 23-Acetyl CMF] | 5.8 fold | 6.1 nM | 6.1 nM | –
20 | CO/C1=C\C(C)=C\[C@@H](C)[C@@H](O)[C@@H](C)C/C(C)=C/C=C/[C@H](OC)[C@@H]([C@@H](C)[C@@H](O)[C@H](C)[C@@]2(O)C[C@@H](OC=O)[C@H](C)[C@@H](C(C)C)O2)OC1=O [Compound S61] | 2.6 fold | 7.3 nM | 12 nM | –
21 | C/C=C/[C@H]1O[C@@H]([C@@H](C)[C@H](O)[C@H](C)[C@H]2OC(=O)/C(OC)=C/C(C)=C/[C@@H](C)[C@@H](O)[C@@H](CC)[C@@H](O)[C@H](C)C/C(C)=C/C=C/[C@@H]2OC)C[C@@H](O[C@@H]2C[C@H](O)[C@@H](O)[C@H](C)O2)[C@@H]1C [Compound S62, 21-Deoxy CMC] | 1.8 fold | 2 nM | 6 nM | –
22 | Elaiophylin [Compound S16, reference compound] | – | – | – | CC50 (primary CD4+ T cells): 160 nM; IC50 (HIV-Nef [2]): 250 nM; Fold decrease in Nef potency compared to 2 (HIV-Nef [2]; […]): 20 fold
23 | bafilomycin D | – | – | – | V-ATPase inhibition (previously reported) (V-ATPase [3]): low level V-ATPase inhibition; Potency as a Nef inhibitor (previously reported) (HIV-Nef [4]): very poor potency
